Results as given in PMC10180054, “Design, Synthesis and Biological Evaluation of Novel Pleuromutilin Derivatives Containing 6-Chloro-1-R-1H-pyrazolo[3,4-d]pyrimidine-4-amino Side Chain” (Molecules, 2023).
≈ marks a conversion by molar mass, not a printed value.

Columns and labels:
[1] = test system: MRSA ATCC 43300; assay: MIC/MBC by broth dilution (CLSI); assay type: cell-based, Staphylococcus aureus; details: Staphylococcus aureus; for MIC: MRSA ATCC 43300, broth dilution, 24 h, 37 °C, read-out: MIC; for MBC: MRSA ATCC 43300, 99.9% of the bacteria killed
Procedure: (§1) The in vitro antimicrobial activity of the pleuromutilin derivatives was assessed against MRSA ATCC 43300, S. aureus ATCC 29213, S. aureus 144 and S. aureus AD3 according to the Clinical and Laboratory Standards Institute (CLSI). Tiamulin was used as a positive control drug. The results were summarized as the minimum inhibitory concentration (MIC) and the minimum bactericidal concentration (MBC) in Table 1 and Table 2. In addition, MIC results for the pleuromutilin derivatives against four Gram-negative bacteria are supplied in Tables S2 and S3.
(§2) The MIC and MBC values of the synthesized novel pleuromutilin derivatives against MRSA ATCC 43300, S. aureus ATCC 29213, S. aureus 144 and S. aureus AD3 were measured. Tiamulin was used as a positive control drug. The MIC and MBC values were manipulated by broth dilution according to the Clinical and Laboratory Standards (CLSI). Each compound to be measured was dissolved in a solution of 95% deionized water, 2.5% dimethyl sulfoxide (DMSO) and 2.5% Tween-80 with a concentration of 1280 µg/mL. Subsequently, serial twofold dilutions were made in a concentration range from 64 µg/mL to 0.0625 µg/mL. The working bacterial suspension was inoculated into each well, which provided the final inoculum density of 5 × 10^5 CFU/mL. Three parallel experiments were performed for each compound.
(§3) Overall, 25 µL of the bacterial solution from the wells with no obvious bacterial growth was inoculated on MH agar plates. Then, the inoculated MH agar plates were further cultured at 37 °C for 24 h.

[2] = test system: S. aureus 144; assay: MIC/MBC by broth dilution (CLSI); assay type: cell-based; details: Staphylococcus aureus; S. aureus 144 (clinical strain)
Procedure: as §1, §2, §3

[3] = test system: S. aureus AD3; assay: MIC/MBC by broth dilution (CLSI); assay type: cell-based; details: Staphylococcus aureus, S. aureus AD3 (clinical strain)
Procedure: as §1, §2, §3

[4] = test system: S. aureus ATCC 29213; assay: MIC/MBC by broth dilution (CLSI); assay type: cell-based; details: Staphylococcus aureus; for MIC: S. aureus ATCC 29213, broth dilution, 24 h, 37 °C; for MBC: S. aureus ATCC 29213
Procedure: as §1, §2, §3

Row | Compound | MIC [1] | MIC [2] | MIC [3] | MIC ([4]; ATCC29213) | melting point | MBC [1] | MBC [2] | MBC ([3]; 24 h) | MIC ([3]; 24 h) | MBC ([4]; ATCC29213) | MBC ([4]; ATCC29213, 24 h) | MBC [3]
1 | C=C[C@]1(C)C[C@@H](OC(=O)CSc2ccc(Nc3nc(Cl)nc4c3cnn4-c3ccccc3F)cc2)[C@]2(C)[C@H](C)CC[C@]3(CCC(=O)[C@H]32)[C@@H](C)[C@@H]1O [Compound 18c, 22-[4-(6-Chloro-1-(2-fluorophenyl)-1H-pyrazolo[3,4-d]pyrimidine-4-yl)amino-Phenylsulfanyl]-22-deoxypleuromutilin] | > 64 µg/mL | > 64 µg/mL | > 64 µg/mL | > 64 µg/mL | 123 to 127 °C | – | – | – | – | – | – | –
2 | C=C[C@]1(C)C[C@@H](OC(=O)CNc2nc(Cl)nc3c2cnn3-c2ccc(F)cc2)[C@]2(C)[C@H](C)CC[C@]3(CCC(=O)[C@H]32)[C@@H](C)[C@@H]1O [Compound 19b, 22-[(6-Chloro-1-(4-fluorophenyl)-1H-pyrazolo[3,4-d]pyrimidine-4-yl)amino]-22-deoxypleuromutilin] | 16 µg/mL (≈ 25.6 µM) | 32 µg/mL (≈ 51.3 µM) | – | 16 µg/mL (≈ 25.6 µM) | 112 to 115 °C | > 64 µg/mL | > 64 µg/mL | > 64 µg/mL | 8 µg/mL (≈ 12.8 µM) | > 64 µg/mL | – | –
3 | C=C[C@]1(C)C[C@@H](OC(=O)CNc2nc(Cl)nc3c2cnn3-c2ccc(F)cc2F)[C@]2(C)[C@H](C)CC[C@]3(CCC(=O)[C@H]32)[C@@H](C)[C@@H]1O [Compound 20b, 22-[(6-Chloro-1-(2,4-difluorophenyl)-1H-pyrazolo[3,4-d]pyrimidine-4-yl)amino]-22-deoxypleuromutilin] | > 64 µg/mL | > 64 µg/mL | > 64 µg/mL | > 64 µg/mL | 123 to 125 °C | – | – | – | – | – | – | –
4 | C=C[C@]1(C)C[C@@H](OC(=O)CSc2ccc(Nc3nc(Cl)nc4c3cnn4-c3ccc(F)cc3F)cc2)[C@]2(C)[C@H](C)CC[C@]3(CCC(=O)[C@H]32)[C@@H](C)[C@@H]1O [Compound 20c, 22-[4-(6-Chloro-1-(2,4-difluorophenyl)-1H-pyrazolo[3,4-d]pyrimidine-4-yl)amino-Phenylsulfanyl]-22-deoxypleuromutilin] | > 64 µg/mL | > 64 µg/mL | > 64 µg/mL | > 64 µg/mL | 132 to 134 °C | – | – | – | – | – | – | –
5 | C=C[C@]1(C)C[C@@H](OC(=O)CNc2nc(Cl)nc3c2cnn3-c2cc(F)ccc2F)[C@]2(C)[C@H](C)CC[C@]3(CCC(=O)[C@H]32)[C@@H](C)[C@@H]1O [Compound 21b, 22-[(6-Chloro-1-(2,5-difluorophenyl)-1H-pyrazolo[3,4-d]pyrimidine-4-yl)amino]-22-deoxypleuromutilin] | > 64 µg/mL | > 64 µg/mL | > 64 µg/mL | > 64 µg/mL | 121 to 125 °C | – | – | – | – | – | – | –
6 | C=C[C@]1(C)C[C@@H](OC(=O)CSc2ccc(Nc3nc(Cl)nc4c3cnn4-c3cc(F)ccc3F)cc2)[C@]2(C)[C@H](C)CC[C@]3(CCC(=O)[C@H]32)[C@@H](C)[C@@H]1O [Compound 21c, 22-[4-(6-Chloro-1-(2,5-difluorophenyl)-1H-pyrazolo[3,4-d]pyrimidine-4-yl)amino-Phenylsulfanyl]-22-deoxypleuromutilin] | > 64 µg/mL | > 64 µg/mL | > 64 µg/mL | > 64 µg/mL | 115 to 118 °C | – | – | – | – | – | – | –
7 | C=C[C@]1(C)C[C@@H](OC(=O)CNc2nc(Cl)nc3c2cnn3-c2ccc(F)c(F)c2)[C@]2(C)[C@H](C)CC[C@]3(CCC(=O)[C@H]32)[C@@H](C)[C@@H]1O [Compound 22b, 22-[(6-Chloro-1-(3,4-difluorophenyl)-1H-pyrazolo[3,4-d]pyrimidine-4-yl)amino]-22-deoxypleuromutilin] | 16 µg/mL (≈ 24.9 µM) | 16 µg/mL (≈ 24.9 µM) | – | 8 µg/mL (≈ 12.5 µM) | 130 to 132 °C | > 64 µg/mL | > 64 µg/mL | > 64 µg/mL | 8 µg/mL (≈ 12.5 µM) | – | > 64 µg/mL | –
8 | C=C[C@]1(C)C[C@@H](OC(=O)CSc2ccc(Nc3nc(Cl)nc4c3cnn4-c3ccc(OC(F)(F)F)cc3)cc2)[C@]2(C)[C@H](C)CC[C@]3(CCC(=O)[C@H]32)[C@@H](C)[C@@H]1O [Compound 23c, 22-[4-(6-Chloro-1-(4-(yrifluoromethoxy)Phenyl)-1H-pyrazolo[3,4-d]pyrimidine-4-yl)amino-Phenylsulfanyl]-22-deoxypleuromutilin] | 0.5 µg/mL (≈ 0.626 µM) | 1 µg/mL (≈ 1.25 µM) | 0.25 µg/mL (≈ 0.313 µM) | 0.5 µg/mL (≈ 0.626 µM) | 144 to 147 °C | 1 µg/mL (≈ 1.25 µM) | 2 µg/mL (≈ 2.51 µM) | – | – | 1 µg/mL (≈ 1.25 µM) | – | 1 µg/mL (≈ 1.25 µM)
9 | C=C[C@]1(C)C[C@@H](OC(=O)CNc2nc(Cl)nc3c2cnn3-c2cccc(Cl)c2)[C@]2(C)[C@H](C)CC[C@]3(CCC(=O)[C@H]32)[C@@H](C)[C@@H]1O [Compound 24b, 22-[(6-Chloro-1-(3-chlorophenyl)-1H-pyrazolo[3,4-d]pyrimidine-4-yl)amino]-22-deoxypleuromutilin] | > 64 µg/mL | > 64 µg/mL | > 64 µg/mL | > 64 µg/mL | 117 to 119 °C | – | – | – | – | – | – | –
10 | C=C[C@]1(C)C[C@@H](OC(=O)CSc2ccc(Nc3nc(Cl)nc4c3cnn4-c3cccc(Cl)c3)cc2)[C@]2(C)[C@H](C)CC[C@]3(CCC(=O)[C@H]32)[C@@H](C)[C@@H]1O [Compound 24c, 22-[4-(6-Chloro-1-(3-chlorophenyl)-1H-pyrazolo[3,4-d]pyrimidine-4-yl)amino-Phenylsulfanyl]-22-deoxypleuromutilin] | > 64 µg/mL | > 64 µg/mL | > 64 µg/mL | > 64 µg/mL | 121 to 124 °C | – | – | – | – | – | – | –
11 | C=C[C@]1(C)C[C@@H](OC(=O)CNc2nc(Cl)nc3c2cnn3-c2ccc(Cl)cc2)[C@]2(C)[C@H](C)CC[C@]3(CCC(=O)[C@H]32)[C@@H](C)[C@@H]1O [Compound 25b, 22-[(6-Chloro-1-(4-chlorophenyl)-1H-pyrazolo[3,4-d]pyrimidine-4-yl)amino]-22-deoxypleuromutilin] | > 64 µg/mL | > 64 µg/mL | > 64 µg/mL | > 64 µg/mL | 107 to 111 °C | – | – | – | – | – | – | –
12 | C=C[C@]1(C)C[C@@H](OC(=O)CSc2ccc(Nc3nc(Cl)nc4c3cnn4-c3ccc(Cl)cc3)cc2)[C@]2(C)[C@H](C)CC[C@]3(CCC(=O)[C@H]32)[C@@H](C)[C@@H]1O [Compound 25c, 22-[4-(6-Chloro-1-(4-chlorophenyl)-1H-pyrazolo[3,4-d]pyrimidine-4-yl)amino-Phenylsulfanyl]-22-deoxypleuromutilin] | 8 µg/mL (≈ 10.7 µM) | > 64 µg/mL | 8 µg/mL (≈ 10.7 µM) | 16 µg/mL (≈ 21.4 µM) | 124 to 129 °C | 16 µg/mL (≈ 21.4 µM) | – | – | – | > 64 µg/mL | – | 32 µg/mL (≈ 42.7 µM)
13 | C=C[C@]1(C)C[C@@H](OC(=O)CNc2nc(Cl)nc3c2cnn3-c2cc(Cl)cc(Cl)c2)[C@]2(C)[C@H](C)CC[C@]3(CCC(=O)[C@H]32)[C@@H](C)[C@@H]1O [Compound 26b, 22-[(6-Chloro-1-(3,5-dichlorophenyl)-1H-pyrazolo[3,4-d]pyrimidine-4-yl)amino]-22-deoxypleuromutilin] | > 64 µg/mL | > 64 µg/mL | > 64 µg/mL | > 64 µg/mL | 151 to 156 °C | – | – | – | – | – | – | –
14 | C=C[C@]1(C)C[C@@H](OC(=O)CSc2ccc(Nc3nc(Cl)nc4c3cnn4-c3cc(Cl)cc(Cl)c3)cc2)[C@]2(C)[C@H](C)CC[C@]3(CCC(=O)[C@H]32)[C@@H](C)[C@@H]1O [Compound 26c, 22-[4-(6-Chloro-1-(3,5-dichlorophenyl)-1H-pyrazolo[3,4-d]pyrimidine-4-yl)amino-Phenylsulfanyl]-22-deoxypleuromutilin] | > 64 µg/mL | > 64 µg/mL | > 64 µg/mL | > 64 µg/mL | 137 to 139 °C | – | – | – | – | – | – | –
